In EPA's ToxValDB 9.5:

Test system: Rattus norvegicus
Details: oral
[1] = short-term, duration: 28 days, gavage, F, Sprague-Dawley, Deaths + Clinical Observation: Locomotor activity decrease, Abnormal respiratory sound Deep respiration Pale skin Hypothermia Ptosis …
[2] = short-term, duration: 28 days, gavage, M, Sprague-Dawley, Deaths + Clinical Observation: Locomotor activity decrease, Abnormal respiratory sound Deep respiration Pale skin Hypothermia Ptosis …
[3] = short-term, duration: 28 days, gavage, F, Sprague-Dawley, Blood Chemistry: Glu decrease, ChE increase, BUN increase + Absolute Organ Weight: Thyroid increase(trend) + Relative Organ Weight: Thyroid …
[4] = short-term, duration: 28 days, gavage, M, Sprague-Dawley, Blood Chemistry: Glu decrease, ChE increase, BUN increase + Absolute Organ Weight: Thyroid increase(trend) + Relative Organ Weight: Thyroid …
[5] = short-term, duration: 28 days, gavage, M, Sprague-Dawley, Clinical Observation: Yellow-orange urine Soft stool DiarrheaSalivation + Body Weight Changes: decrease + Food Consumption: decrease + …

Compound: CCCCC/C=C/C=C/C=O [(E,E)-2,4-Decadienal]
- NOAEL (chronic, duration: 14 weeks, gavage, M/F, Fischer 344, Clinical Observation: Lethargy + Body Weight Changes: Mean body weight decrease, Body weight gain decrease + Hematology: WBC decrease, SEG …): 100 mg/kg-day

Compound: c1cc(OCC2CO2)cc(OCC2CO2)c1 (stereo unspecified) [Diglycidyl resorcinol ether]
- NOEL (subchronic, duration: 13 weeks, gavage, M/F, Fischer 344, Deaths + Body Weight Changes: decrease + Histopathology: Stomach/forestomach-Inflammation Stomach/forestomach-Basal cell hyperplasia Stomach…): < 12.5 mg/kg-day

Compound: c1ccc(Nc2ccc3ccccc3c2)cc1 [N-Phenyl-2-naphthylamine]
- NOEL (subchronic, duration: 13 weeks, diet, M/F, Fischer 344, Deaths + Clinical Observation: Rough coats + Body Weight Changes: decrease + Absolute Organ Weight: Liver increase + Relative Organ Weight…): 240 mg/kg-day

Compound: O=[N+]([O-])C(Br)(CO)CO [Bronopol]
- LOEL [1]: 30 mg/kg-day
- NOEL [1]: 10 mg/kg-day
- LOEL [2]: 90 mg/kg-day
- NOEL [2]: 30 mg/kg-day

Compound: CCCCCCCCCCC=O [Undecanal]
- NOAEL (subchronic, duration: 42 days, gavage, M, CD(SD), Clinical Observation: Salivation (transient)): 1000 mg/kg-day

Compound: Cl.Cl.NCCNCCNCCN [Trientine hydrochloride]
- NOAEL (chronic, duration: 92 days, drinking water, F, Fischer 344, Histopathology: Uterus: Increased prevalence of dilatation): 669 mg/kg-day

Compound: CN1C(=O)C(O)N=C(c2ccccc2Cl)c2cc(Cl)ccc21 (stereo unspecified) [Lormetazepam]
- NOEL (subchronic, duration: 35 days, gavage, F, Sprague-Dawley, Clinical Observation: Locomotor activity decrease, Drowsiness Aggression + Body Weight Changes: Body weight gain increase + Food Consumption…): 4 mg/kg-day
- NOEL (subchronic, duration: 35 days, gavage, M, Sprague-Dawley, Clinical Observation: Locomotor activity decrease, Drowsiness Aggression + Body Weight Changes: Body weight gain increase + Food Consumption…): 20 mg/kg-day

Compound: CC(I)C1OCC(CO)O1 (stereo unspecified) [Iodinated glycerol]
- NOEL (subchronic, duration: 13 weeks, gavage, M/F, Fischer 344, Deaths + Body Weight Changes: decrease + Histopathology: Kidney-Tubular cell regeneration Kidney-Calcification): 250 mg/kg-day

Compound: CCCN(CCC)S(=O)(=O)c1ccc(C(=O)O)cc1 [Probenecid]
- NOEL (subchronic, duration: 13 weeks, gavage, M/F, Fischer 344, Clinical Observation: Yellow-brown staining of the perineum + Body Weight Changes: decrease + Absolute Organ Weight: Liver increase, Right …): < 50 mg/kg-day

Compound: CCCCCCCCCCCCCCCCCCCCCC[N+](C)(C)C.[Cl-] [Docosyltrimethylammonium chloride]
- NOEL (subchronic, gavage, M, Sprague-Dawley, Clinical Observation: Salivation Perinasal and perioral smudge Soft stool and diarrhea + Body Weight Changes: decrease, R + Food …): < 5 mg/kg-day

Compound: CCCCCCCCCCCCC(C(=O)OC)S(=O)(=O)[O-].[Na+] (stereo unspecified) [Sodium 1-methoxy-1-oxotetradecane-2-sulfonate]
- NOEL (subchronic, diet, F, Crj: CD (SD), Blood Chemistry: TG decrease + Absolute Organ Weight: Testis increase + Relative Organ Weight: Testis increase): 249 mg/kg-day
- NOEL (subchronic, diet, M/F, Crj: CD (SD), Blood Chemistry: TG decrease + Absolute Organ Weight: Testis increase + Relative Organ Weight: Testis increase): 0.3%
- NOEL (subchronic, diet, M, Crj: CD (SD), Blood Chemistry: TG decrease + Absolute Organ Weight: Testis increase + Relative Organ Weight: Testis increase): 175 mg/kg-day

Compound: C1C2CC3CC1CC(C2)C3 [Adamantane]
- LOEL [3]: 1000 mg/kg-day
- NOEL [3]: 200 mg/kg-day
- LOEL [4]: 40 mg/kg-day
- NOEL [4]: < 40 mg/kg-day

Compound: ClC(Cl)C(Cl)Cl [1,1,2,2-Tetrachloroethane]
- NOEL (subchronic, diet, F, Fischer 344, Clinical Observation: Thinness Pallor + Body Weight Changes: decrease + Food Consumption: decrease + Hematology: Manual Hct decrease, Plt …): 10.1 mg/kg-day
- NOEL (subchronic, diet, M/F, Fischer 344, Clinical Observation: Thinness Pallor + Body Weight Changes: decrease + Food Consumption: decrease + Hematology: Manual Hct decrease, Plt …): < 25.7 mg/kg-day
- NOEL (subchronic, diet, M, Fischer 344, Clinical Observation: Thinness Pallor + Body Weight Changes: decrease + Food Consumption: decrease + Hematology: Manual Hct decrease, Plt …): 16.6 mg/kg-day

Compound: N#[N+]c1ccc2c(S(=O)(=O)[O-])cccc2c1[O-].[Na+]
- NOEL (subchronic, gavage, M, Sprague-Dawley, Clinical Observation: Loose stool Mucous stool Soiled perineal region Brownish urine + Body Weight Changes: decrease(trend) + Food …): < 40 mg/kg-day

Compound: CCCCCCOCCOCCO [2-[2-(Hexyloxy)ethoxy]ethanol]
- NOAEL (subchronic, duration: 53 days, diet, M, SD(CD), Body Weight Changes: Mean body weight decrease + Food Consumption: decrease + Urinalysis: pH decrease + Relative Organ Weight: Liver …): 300 mg/kg-day

Compound: O=[N+]([O-])/N=C1\NCCN1Cc1ccc(Cl)nc1 [Imidacloprid]
- NOEL (chronic, duration: 96 days, gavage, M/F, Body Weight Changes: Weight gain decrease + Hematology: WBC decrease, QT increase + Blood Chemistry: BUN increase, CL increase, IP decrease…): < 150 ppm

Compound: CC(C)OC1(OC(C)C)CCCCC1 [1,1-Diisopropoxycyclohexane]
- NOEL (subchronic, gavage, M, Sprague-Dawley, Clinical Observation: Salivation + Food Consumption: increase + Blood Chemistry: T-Cho increase + Absolute Organ Weight: Liver increase, …): 40 mg/kg-day

Compound: BrCCCCCCCCCCBr [1,10-Dibromodecane-]
- NOEL (short-term, duration: 28 days, gavage, M/F, Sprague-Dawley, Clinical Observation: Salivation + Water Consumption: increase + Blood Chemistry: BUN increase, Cl increase + Absolute Organ Weight: Liver …): < 8 mg/kg-day

Compound: C(COCC1CO1)OCC1CO1 (stereo unspecified) [Ethylene glycol diglycidyl ether]
- NOEL (subchronic, duration: 42 days, gavage, M, CD(SD), Clinical Observation: Salivation + Body Weight Changes: decrease + Food Consumption: decrease + Blood Chemistry: TG decrease + …): 12.5 mg/kg-day

Compound: NS(=O)(=O)c1cc(C(=O)O)c(NCc2ccco2)cc1Cl [Furosemide]
- NOEL (subchronic, duration: 13 weeks, diet, M/F, Fischer 344, Deaths + Clinical Observation: Diuresis Rough fur + Body Weight Changes: decrease + Food Consumption: decrease + Relative Organ Weight: …): < 60 mg/kg-day

Compound: COC(=O)C1=C(C#N)NC(C)=C(C(=O)OC(C)C)C1c1cccc([N+](=O)[O-])c1 (stereo unspecified) [Nilvadipine]
- NOEL (subchronic, gavage, M/F, Sprague-Dawley, Relative Organ Weight: Heart increase Liver increase Ovary increase + Histopathology: Adrenal-Lipoid increase, of zona glomerulosa): < 9.6 mg/kg-day

Compound: CCC(C)(C)OC [tert-Amyl methyl ether]
- NOAEL (short-term, duration: 29 days, gavage, M/F, Sprague-Dawley, Deaths + Clinical Observation: Rales Anogenital staining + Body Weight Changes: Mean body weight decrease + Food Consumption: decrease + …): 125 mg/kg-day

Compound: CN(C)c1cccc(C(=O)O)c1 [Benzoic acid, 3-(dimethylamino)-]
- NOEL (subchronic, gavage, M, Sprague-Dawley, Clinical Observation: Salivation + Blood Chemistry: Bil increase, Cl decrease + Relative Organ Weight: Heart increase): 200 mg/kg-day

Compound: O=C(O)CCCN1CCC(O[C@@H](c2ccc(Cl)cc2)c2ccccn2)CC1.O=S(=O)(O)c1ccccc1 [Bepotastine besylate]
- NOAEL (short-term, duration: 28 days, gavage, M/F, CD, Clinical Observation: Mydriasis Salivation Soiled perineal region + Body Weight Changes: decrease + Food Consumption: decrease + Urinalysis…): 100 mg/kg-day

Compound: O=C1CCc2ccccc2O1 [3,4-Dihydrocoumarin]
- NOEL (subchronic, duration: 13 weeks, gavage, M/F, Fischer 344, Deaths + Body Weight Changes: decrease + Hematology: Plt decrease, Hct decrease, Hgb decrease, RBC decrease, WBC decrease, Lympho decrease…): < 75 mg/kg-day

Compound: NCc1ccc(Cl)nc1 [5-(Aminomethyl)-2-chloropyridine]
- NOEL (short-term, duration: 28 days, gavage, M/F, Clinical Observation: Salivation Locomotor activity decrease, Respiration rate decrease, Ptosis Lacrimation + Body Weight Changes: Weight …): 8 mg/kg-day

Compound: Cc1ccc(Nc2ccc(C)cc2)cc1 [4,4'-Dimethyldiphenylamine]
- NOEL (short-term, duration: 28 days, gavage, M/F, Clinical Observation: Salivation + Blood Chemistry: GOT increase, GPT increase, gamma-GTP increase, T-CHO increase, TG increase, IP …): 30 mg/kg-day

Compound: CC(O)c1ccccc1 (stereo not drawn) [alpha-Methylbenzyl alcohol]
- NOEL (subchronic, duration: 13 weeks, gavage, M/F, Fischer 344, Deaths + Clinical Observation: Ataxia Rapid breathing Lethargy + Body Weight Changes: decrease + Urinalysis: -- + Absolute Organ Weight: …): < 93 mg/kg-day

Compound: C=CS(=O)(=O)CCNC(=O)c1cccc(Nc2nc(F)nc(Nc3cc(S(=O)(=O)[O-])cc4cc(S(=O)(=O)[O-])c(N=Nc5ccc6c(S(=O)(=O)[O-])cccc6c5S(=O)(=O)[O-])c(O)c34)n2)c1.[Na+].[Na+].[Na+].[Na+]
- NOEL (short-term, duration: 28 days, gavage, M/F, Urinalysis: Occult blood increase, Bil increase + Hematology: RET increase, WBC increase, LYMPH increase + Blood Chemistry: BUN increase, T-…): 50 mg/kg-day

Compound: Nc1cc([N+](=O)[O-])ccc1O [2-Amino-4-nitrophenol]
- NOAEL [5]: < 150 mg/kg-day
- NOEL [5]: < 150 mg/kg-day
- NOEL (subchronic, duration: 13 weeks, gavage, M/F, Fischer 344, Deaths + Body Weight Changes: decrease + Absolute Organ Weight: Liver increase + Relative Organ Weight: Liver increase + Histopathology: …): 125 mg/kg-day

Compound: Nc1c(S(=O)(=O)O)cc(Br)c2c1C(=O)c1ccccc1C2=O
- NOEL (short-term, duration: 28 days, gavage, M/F, Deaths + Clinical Observation: Polyuria + Body Weight Changes: Body weight gain decrease + Water Consumption: increase + Urinalysis: Urine …): 50 mg/kg-day

Compound: O=C1c2ccccc2C(=O)N1SC(F)(Cl)Cl [Fluorofolpet]
- NOEL (short-term, duration: 28 days, gavage, M/F, Wistar, Deaths + Clinical Observation: Nasal noise Diarrhea + Body Weight Changes: Weight gain decrease + Food Consumption: decrease + Water …): < 20 mg/kg-day

Compound: O=C(O)C(Cl)(Cl)Cl [Trichloroacetic acid]
- NOEL (short-term, duration: 28 days, gavage, M/F, Clinical Observation: Salivation Soft feces Locomotor activity decrease + Urinalysis: Ketone body increase + Hematology: WBC increase, Trend…): 40 mg/kg-day

Compound: CN(C)c1ccc(C(c2ccccc2)c2ccc(N(C)C)cc2)cc1 [Leucomalachite green]
- NOEL (subchronic, diet, M, Fischer 344, Body Weight Changes: decrease + Hematology: Hct decrease, Hgb decrease, RBC decrease, Ret increase + Blood Chemistry: Alb decrease, Cho …): < 27.8 mg/kg-day

Compound: CCC(Cl)C(Cl)C(Cl)CC(Cl)C(Cl)C(C)Cl (stereo unspecified) [C10-12 chloroalkanes]
- NOEL (subchronic, duration: 13 weeks, gavage, M/F, Fischer 344, Clinical Observation: Inactive + Body Weight Changes: decrease + Relative Organ Weight: Liver increase + Histopathology: Liver-Hypertrophy, …): < 313 mg/kg-day

Compound: C=CCOC(=O)c1ccccc1-c1ccccc1C(=O)OCC=C
- NOEL (short-term, duration: 28 days, gavage, M/F, Clinical Observation: Salivation + Hematology: APTT increase, PT increase + Blood Chemistry: GOT increase, GPT increase, gamma-GTP increase…): 6 mg/kg-day

Compound: CCC(C)c1cc(C(C)(C)C)cc(-n2nc3ccccc3n2)c1O (stereo unspecified) [2-(2H-Benzotriazol-2-yl)-6-(butan-2-yl)-4-tert-butylphenol]
- NOAEL (subchronic, duration: 42 days, gavage, M, Sprague-Dawley, Hematology: HGB decrease + Blood Chemistry: TP increase, Alb increase, A/G increase, ALP increase, ChE increase + Absolute Organ Weight: …): 4 mg/kg-day
- NOEL (subchronic, gavage, M, Sprague-Dawley, Blood Chemistry: TG decrease PL decrease Alb increase A/G increase Alp increase + Absolute Organ Weight: Liver increase + Relative Organ …): < 0.5 mg/kg-day
